# Assay: (§1) The drug is tested on WLS-073 corresponding to human gut metagenome with ENA study accession number: PRJEB37062 and ENA sample accession number: ERS12561749 for biotransformation under anaerobic condition. The drug concentrations were measured over 9 timepoints collected between 0 and 24 hours of incubation by liquid-chromatography-coupled mass spectrometry (LC–MS)
# Conditions: 2 µM
# Further: call rule not given here.
row,Bacterial Biotransformation,SMILES
1,Compound NOT metabolized,O=C(NC(Cc1cc(=O)[nH]c2ccccc12)C(=O)O)c1ccc(Cl)cc1 (stereo not given) [REBAMIPIDE]
2,Compound metabolized,CCOc1cc(CC(=O)N[C@@H](CC(C)C)c2ccccc2N2CCCCC2)ccc1C(=O)O [REPAGLINIDE]
3,Compound NOT metabolized,CC(N)C12CC3CC(CC(C3)C1)C2 (stereo not given) [RIMANTADINE]

# Assay: as §1, with “WLS-052” for “WLS-073”, “ERS12561747” for “ERS12561749”
# Conditions: 2 µM
row,Bacterial Biotransformation,SMILES
1,Compound NOT metabolized,O=C(NC(Cc1cc(=O)[nH]c2ccccc12)C(=O)O)c1ccc(Cl)cc1 (stereo not given) [REBAMIPIDE]
2,Compound metabolized,CCOc1cc(CC(=O)N[C@@H](CC(C)C)c2ccccc2N2CCCCC2)ccc1C(=O)O [REPAGLINIDE]
3,Compound NOT metabolized,CC(N)C12CC3CC(CC(C3)C1)C2 (stereo not given) [RIMANTADINE]

# Assay: as §1, with “Z-004” for “WLS-073”, “to” for “to human gut”, “ERS12561804” for “ERS12561749”
# Conditions: 2 µM
row,Bacterial Biotransformation,SMILES
1,Compound NOT metabolized,O=C(NC(Cc1cc(=O)[nH]c2ccccc12)C(=O)O)c1ccc(Cl)cc1 (stereo not given) [REBAMIPIDE]
2,Compound metabolized,CCOc1cc(CC(=O)N[C@@H](CC(C)C)c2ccccc2N2CCCCC2)ccc1C(=O)O [REPAGLINIDE]
3,Compound NOT metabolized,CC(N)C12CC3CC(CC(C3)C1)C2 (stereo not given) [RIMANTADINE]

# Assay: as §1, with “Z-007” for “WLS-073”, “rat” for “human”, “ERS12561807” for “ERS12561749”
# Conditions: 2 µM
row,Bacterial Biotransformation,SMILES
1,Compound NOT metabolized,O=C(NC(Cc1cc(=O)[nH]c2ccccc12)C(=O)O)c1ccc(Cl)cc1 (stereo not given) [REBAMIPIDE]
2,Compound metabolized,CCOc1cc(CC(=O)N[C@@H](CC(C)C)c2ccccc2N2CCCCC2)ccc1C(=O)O [REPAGLINIDE]
3,Compound NOT metabolized,CC(N)C12CC3CC(CC(C3)C1)C2 (stereo not given) [RIMANTADINE]

# Conditions: human gut metagenome, 24 h, 2 µM
row,Bacterial Biotransformation,SMILES
1,Compound NOT metabolized,O=C(NC(Cc1cc(=O)[nH]c2ccccc12)C(=O)O)c1ccc(Cl)cc1 (stereo not given) [REBAMIPIDE]
2,Compound metabolized,CCOc1cc(CC(=O)N[C@@H](CC(C)C)c2ccccc2N2CCCCC2)ccc1C(=O)O [REPAGLINIDE]
3,Compound NOT metabolized,CC(N)C12CC3CC(CC(C3)C1)C2 (stereo not given) [RIMANTADINE]

# Assay: as §1, with “Z-022” for “WLS-073”, “mouse” for “human”, “ERS12561821” for “ERS12561749”
# Conditions: 2 µM
row,Bacterial Biotransformation,SMILES
1,Compound NOT metabolized,O=C(NC(Cc1cc(=O)[nH]c2ccccc12)C(=O)O)c1ccc(Cl)cc1 (stereo not given) [REBAMIPIDE]
2,Compound metabolized,CCOc1cc(CC(=O)N[C@@H](CC(C)C)c2ccccc2N2CCCCC2)ccc1C(=O)O [REPAGLINIDE]
3,Compound metabolized,CC(N)C12CC3CC(CC(C3)C1)C2 (stereo not given) [RIMANTADINE]

# Conditions: human gut metagenome, 24 h, 2 µM
# Remark: another data set of the same source
row,Bacterial Biotransformation,SMILES
1,Compound NOT metabolized,O=C(NC(Cc1cc(=O)[nH]c2ccccc12)C(=O)O)c1ccc(Cl)cc1 (stereo not given) [REBAMIPIDE]
2,Compound metabolized,CCOc1cc(CC(=O)N[C@@H](CC(C)C)c2ccccc2N2CCCCC2)ccc1C(=O)O [REPAGLINIDE]
3,Compound NOT metabolized,CC(N)C12CC3CC(CC(C3)C1)C2 (stereo not given) [RIMANTADINE]

# Assay: as §1, with “WLS-350” for “WLS-073”, “ERS12561789” for “ERS12561749”
# Conditions: 2 µM
row,Bacterial Biotransformation,SMILES
1,Compound NOT metabolized,O=C(NC(Cc1cc(=O)[nH]c2ccccc12)C(=O)O)c1ccc(Cl)cc1 (stereo not given) [REBAMIPIDE]
2,Compound metabolized,CCOc1cc(CC(=O)N[C@@H](CC(C)C)c2ccccc2N2CCCCC2)ccc1C(=O)O [REPAGLINIDE]
3,Compound NOT metabolized,CC(N)C12CC3CC(CC(C3)C1)C2 (stereo not given) [RIMANTADINE]

# Assay: as §1, with “Z-006” for “WLS-073”, “mouse” for “human”, “ERS12561806” for “ERS12561749”
# Conditions: 2 µM
row,Bacterial Biotransformation,SMILES
1,Compound NOT metabolized,O=C(NC(Cc1cc(=O)[nH]c2ccccc12)C(=O)O)c1ccc(Cl)cc1 (stereo not given) [REBAMIPIDE]
2,Compound metabolized,CCOc1cc(CC(=O)N[C@@H](CC(C)C)c2ccccc2N2CCCCC2)ccc1C(=O)O [REPAGLINIDE]
3,Compound NOT metabolized,CC(N)C12CC3CC(CC(C3)C1)C2 (stereo not given) [RIMANTADINE]

# Assay: as §1, with “Z-013” for “WLS-073”, “rabbit” for “human”, “ERS12561813” for “ERS12561749”
# Conditions: 2 µM
row,Bacterial Biotransformation,SMILES
1,Compound NOT metabolized,O=C(NC(Cc1cc(=O)[nH]c2ccccc12)C(=O)O)c1ccc(Cl)cc1 (stereo not given) [REBAMIPIDE]
2,Compound NOT metabolized,CCOc1cc(CC(=O)N[C@@H](CC(C)C)c2ccccc2N2CCCCC2)ccc1C(=O)O [REPAGLINIDE]
3,Compound NOT metabolized,CC(N)C12CC3CC(CC(C3)C1)C2 (stereo not given) [RIMANTADINE]

# Assay: as §1, with “WLS-010” for “WLS-073”, “ERS12561743” for “ERS12561749”
# Conditions: 2 µM
row,Bacterial Biotransformation,SMILES
1,Compound metabolized,O=C(NC(Cc1cc(=O)[nH]c2ccccc12)C(=O)O)c1ccc(Cl)cc1 (stereo not given) [REBAMIPIDE]
2,Compound metabolized,CCOc1cc(CC(=O)N[C@@H](CC(C)C)c2ccccc2N2CCCCC2)ccc1C(=O)O [REPAGLINIDE]
3,Compound NOT metabolized,CC(N)C12CC3CC(CC(C3)C1)C2 (stereo not given) [RIMANTADINE]

# Conditions: human gut metagenome, 24 h, 2 µM
# Remark: another data set of the same source
row,Bacterial Biotransformation,SMILES
1,Compound NOT metabolized,O=C(NC(Cc1cc(=O)[nH]c2ccccc12)C(=O)O)c1ccc(Cl)cc1 (stereo not given) [REBAMIPIDE]
2,Compound metabolized,CCOc1cc(CC(=O)N[C@@H](CC(C)C)c2ccccc2N2CCCCC2)ccc1C(=O)O [REPAGLINIDE]
3,Compound NOT metabolized,CC(N)C12CC3CC(CC(C3)C1)C2 (stereo not given) [RIMANTADINE]

# Conditions: human gut metagenome, 24 h, 2 µM
# Remark: another data set of the same source
row,Bacterial Biotransformation,SMILES
1,Compound NOT metabolized,O=C(NC(Cc1cc(=O)[nH]c2ccccc12)C(=O)O)c1ccc(Cl)cc1 (stereo not given) [REBAMIPIDE]
2,Compound metabolized,CCOc1cc(CC(=O)N[C@@H](CC(C)C)c2ccccc2N2CCCCC2)ccc1C(=O)O [REPAGLINIDE]
3,Compound NOT metabolized,CC(N)C12CC3CC(CC(C3)C1)C2 (stereo not given) [RIMANTADINE]

# Assay: as §1, with “Z-023” for “WLS-073”, “to” for “to human gut”, “ERS12561822” for “ERS12561749”
# Conditions: 2 µM
row,Bacterial Biotransformation,SMILES
1,Compound metabolized,O=C(NC(Cc1cc(=O)[nH]c2ccccc12)C(=O)O)c1ccc(Cl)cc1 (stereo not given) [REBAMIPIDE]
2,Compound metabolized,CCOc1cc(CC(=O)N[C@@H](CC(C)C)c2ccccc2N2CCCCC2)ccc1C(=O)O [REPAGLINIDE]
3,Compound NOT metabolized,CC(N)C12CC3CC(CC(C3)C1)C2 (stereo not given) [RIMANTADINE]

# Conditions: human gut metagenome, 24 h, 2 µM
# Remark: another data set of the same source
row,Bacterial Biotransformation,SMILES
1,Compound metabolized,O=C(NC(Cc1cc(=O)[nH]c2ccccc12)C(=O)O)c1ccc(Cl)cc1 (stereo not given) [REBAMIPIDE]
2,Compound metabolized,CCOc1cc(CC(=O)N[C@@H](CC(C)C)c2ccccc2N2CCCCC2)ccc1C(=O)O [REPAGLINIDE]
3,Compound NOT metabolized,CC(N)C12CC3CC(CC(C3)C1)C2 (stereo not given) [RIMANTADINE]

# Assay: as §1, with “Z-025” for “WLS-073”, “rabbit” for “human”, “ERS12561824” for “ERS12561749”
# Conditions: 2 µM
row,Bacterial Biotransformation,SMILES
1,Compound NOT metabolized,O=C(NC(Cc1cc(=O)[nH]c2ccccc12)C(=O)O)c1ccc(Cl)cc1 (stereo not given) [REBAMIPIDE]
2,Compound NOT metabolized,CCOc1cc(CC(=O)N[C@@H](CC(C)C)c2ccccc2N2CCCCC2)ccc1C(=O)O [REPAGLINIDE]
3,Compound NOT metabolized,CC(N)C12CC3CC(CC(C3)C1)C2 (stereo not given) [RIMANTADINE]

# Conditions: human gut metagenome, 24 h, 2 µM
# Remark: another data set of the same source
row,Bacterial Biotransformation,SMILES
1,Compound metabolized,O=C(NC(Cc1cc(=O)[nH]c2ccccc12)C(=O)O)c1ccc(Cl)cc1 (stereo not given) [REBAMIPIDE]
2,Compound metabolized,CCOc1cc(CC(=O)N[C@@H](CC(C)C)c2ccccc2N2CCCCC2)ccc1C(=O)O [REPAGLINIDE]
3,Compound NOT metabolized,CC(N)C12CC3CC(CC(C3)C1)C2 (stereo not given) [RIMANTADINE]

# Conditions: human gut metagenome, 24 h, 2 µM
# Remark: another data set of the same source
row,Bacterial Biotransformation,SMILES
1,Compound NOT metabolized,O=C(NC(Cc1cc(=O)[nH]c2ccccc12)C(=O)O)c1ccc(Cl)cc1 (stereo not given) [REBAMIPIDE]
2,Compound metabolized,CCOc1cc(CC(=O)N[C@@H](CC(C)C)c2ccccc2N2CCCCC2)ccc1C(=O)O [REPAGLINIDE]
3,Compound NOT metabolized,CC(N)C12CC3CC(CC(C3)C1)C2 (stereo not given) [RIMANTADINE]

# Assay: as §1, with “Z-009” for “WLS-073”, “pig” for “human”, “ERS12561809” for “ERS12561749”
# Conditions: 2 µM
row,Bacterial Biotransformation,SMILES
1,Compound NOT metabolized,O=C(NC(Cc1cc(=O)[nH]c2ccccc12)C(=O)O)c1ccc(Cl)cc1 (stereo not given) [REBAMIPIDE]
2,Compound metabolized,CCOc1cc(CC(=O)N[C@@H](CC(C)C)c2ccccc2N2CCCCC2)ccc1C(=O)O [REPAGLINIDE]
3,Compound NOT metabolized,CC(N)C12CC3CC(CC(C3)C1)C2 (stereo not given) [RIMANTADINE]

# Conditions: human gut metagenome, 24 h, 2 µM
# Remark: another data set of the same source
row,Bacterial Biotransformation,SMILES
1,Compound metabolized,O=C(NC(Cc1cc(=O)[nH]c2ccccc12)C(=O)O)c1ccc(Cl)cc1 (stereo not given) [REBAMIPIDE]
2,Compound metabolized,CCOc1cc(CC(=O)N[C@@H](CC(C)C)c2ccccc2N2CCCCC2)ccc1C(=O)O [REPAGLINIDE]
3,Compound NOT metabolized,CC(N)C12CC3CC(CC(C3)C1)C2 (stereo not given) [RIMANTADINE]

# Source: ChEMBL document CHEMBL5724914, “Linking interpersonal differences in gut microbiota composition and drug biotransformation activity” (2024)
